Laboratory results from patent publication US8722578B2, “Spiroheterocyclic pyrrolidinedione herbicidal compositions” (Syngenta Participations AG, priority 2008, dated 2014).

Columns and labels:
[1] = test system: Alopecurus myosuroides (ALOMY); experiment: Example A pre-emergence herbicidal activity, glasshouse pot test; format: in vivo; details: 480 h, rate 250 g/ha, evaluated 20 days after spraying, read-out: ALOMY pre-emergence activity (100=total damage to plant; 0=no damage to plant)
Description: (§1) Monocotyledonous and dicotyledonous test plants are sown in standard soil in pots. After cultivation for one day (pre-emergence) or after 10 days cultivation (post-emergence) under controlled conditions in a glasshouse, the plants are sprayed with an aqueous spray solution derived from the formulation of the technical active ingredient in 0.6 ml acetone and 45 ml formulation solution containing 10.6% Emulsogen EL (Registry number 61791-12-6), 42.2% N-methylpyrrolidone, 42.2% dipropylene glycol monomethyl ether (Registry number 34590-94-8) and 0.2% X-77 (Registry number 11097-66-8). The test plants are then grown in a greenhouse under optimum conditions until, 15 days later for post-emergence and 20 days for pre-emergence, the test is evaluated (100=total damage to plant; 0=no damage to plant). Test Plants: Alopecurus myosuroides (ALOMY), Avena fatua (AVEFA), Lolium perenne (LOLPE), Setaria faberi (SETFA), Digitaria sanguinalis (DIGSA), Echinochloa crus-galli (ECHCG) Pre-Emergence Activity

Avena fatua (AVEFA) [2] = experiment: as above; format: in vivo; details: 480 h, rate 250 g/ha, evaluated 20 days after spraying, read-out: AVEFA pre-emergence activity (100=total damage to plant; 0=no damage to plant)
Description: as §1

[3] = test system: Digitaria sanguinalis (DIGSA); experiment: as above; format: in vivo; details: 480 h, rate 250 g/ha, evaluated 20 days after spraying, read-out: DIGSA pre-emergence activity (100=total damage to plant; 0=no damage to plant)
Description: as §1

[4] = test system: Echinochloa crus-galli (ECHCG); experiment: as above; format: in vivo; details: 480 h, rate 250 g/ha, evaluated 20 days after spraying, read-out: ECHOG pre-emergence activity (100=total damage to plant; 0=no damage to plant)
Description: as §1

Lolium perenne (LOLPE) [5] = experiment: as above; format: in vivo; details: 480 h, rate 250 g/ha, evaluated 20 days after spraying, read-out: LOLPE pre-emergence activity (100=total damage to plant; 0=no damage to plant)
Description: as §1

Setaria faberi (SETFA) [6] = experiment: as above; format: in vivo; details: 480 h, rate 250 g/ha, evaluated 20 days after spraying, read-out: SETFA pre-emergence activity (100=total damage to plant; 0=no damage to plant)
Description: as §1

[7] = test system: Alopecurus myosuroides (ALOMY); experiment: Example A post-emergence herbicidal activity, glasshouse pot test; format: in vivo; details: 360 h, rate 125 g/ha, evaluated 15 days after spraying, read-out: ALOMY post-emergence activity (100=total damage to plant; 0=no damage to plant)
Description: as §1, with “Post-Emergence” for “Pre-Emergence”

Avena fatua (AVEFA) [8] = experiment: as above; format: in vivo; details: 360 h, rate 125 g/ha, evaluated 15 days after spraying, read-out: AVEFA post-emergence activity (100=total damage to plant; 0=no damage to plant)
Description: as §1, with “Post-Emergence” for “Pre-Emergence”

[9] = test system: Digitaria sanguinalis (DIGSA); experiment: as above; format: in vivo; details: 360 h, rate 125 g/ha, evaluated 15 days after spraying, read-out: DIGSA post-emergence activity (100=total damage to plant; 0=no damage to plant)
Description: as §1, with “Post-Emergence” for “Pre-Emergence”

[10] = test system: Echinochloa crus-galli (ECHCG); experiment: as above; format: in vivo; details: 360 h, rate 125 g/ha, evaluated 15 days after spraying, read-out: ECHOG post-emergence activity (100=total damage to plant; 0=no damage to plant)
Description: as §1, with “Post-Emergence” for “Pre-Emergence”

Lolium perenne (LOLPE) [11] = experiment: as above; format: in vivo; details: 360 h, rate 125 g/ha, evaluated 15 days after spraying, read-out: LOLPE post-emergence activity (100=total damage to plant; 0=no damage to plant)
Description: as §1, with “Post-Emergence” for “Pre-Emergence”

Setaria faberi (SETFA) [12] = experiment: as above; format: in vivo; details: 360 h, rate 125 g/ha, evaluated 15 days after spraying, read-out: SETFA post-emergence activity (100=total damage to plant; 0=no damage to plant)
Description: as §1, with “Post-Emergence” for “Pre-Emergence”

[13] = test system: Alopecurus myosuroides (ALOMY); experiment: Example B pre-emergence herbicidal activity, glasshouse pot test; format: in vivo; details: 312 h, first table (headed Post-Emergence, taken as pre-emergence), evaluated after 13 days, read-out: ALOMY activity (100=total damage to plant; 0=no damage to plant); for pest or weed control at 1000 g/ha: rate 1000 g/ha; for pest or weed control at 250 g/ha: rate 250 g/ha
Description: (§2) Seeds of a variety of test species are sown in standard soil in pots. After cultivation for one day (pre-emergence) or after 8 days cultivation (post-emergence) under controlled conditions in a glasshouse (at 24/16° C., day/night; 14 hours light; 65% humidity), the plants are sprayed with an aqueous spray solution derived from the formulation of the technical active ingredient in acetone/water (50:50) solution containing 0.5% Tween 20 (polyoxyethelyene sorbitan monolaurate, CAS RN 9005-64-5). The test plants are then grown in a glasshouse under controlled conditions in a glasshouse (at 24/16° C., day/night; 14 hours light; 65% humidity) and watered twice daily. After 13 days for pre and post-emergence, the test is evaluated (100=total damage to plant; 0=no damage to plant). Test Plants: Setaria faberi (SETFA), Alopecurus myosuroides (ALOMY), Echinochloa crus-galli (ECHCG), Avena fatua (AVEFA)

Avena fatua (AVEFA) [14] = experiment: as above; format: in vivo; details: 312 h, first table (headed Post-Emergence, taken as pre-emergence), evaluated after 13 days, read-out: AVEFA activity (100=total damage to plant; 0=no damage to plant); for pest or weed control at 1000 g/ha: rate 1000 g/ha; for pest or weed control at 250 g/ha: rate 250 g/ha
Description: as §2

[15] = test system: Echinochloa crus-galli (ECHCG); experiment: as above; format: in vivo; details: 312 h, first table (headed Post-Emergence, taken as pre-emergence), evaluated after 13 days, read-out: ECHCG activity (100=total damage to plant; 0=no damage to plant); for pest or weed control at 1000 g/ha: rate 1000 g/ha; for pest or weed control at 250 g/ha: rate 250 g/ha
Description: as §2

Setaria faberi (SETFA) [16] = experiment: as above; format: in vivo; details: 312 h, first table (headed Post-Emergence, taken as pre-emergence), evaluated after 13 days, read-out: SETFA activity (100=total damage to plant; 0=no damage to plant); for pest or weed control at 1000 g/ha: rate 1000 g/ha; for pest or weed control at 250 g/ha: rate 250 g/ha
Description: as §2

[17] = test system: Alopecurus myosuroides (ALOMY); experiment: Example B post-emergence herbicidal activity, glasshouse pot test; format: in vivo; details: 312 h, evaluated after 13 days, read-out: ALOMY post-emergence activity (100=total damage to plant; 0=no damage to plant); for pest or weed control at 1000 g/ha: rate 1000 g/ha; for pest or weed control at 250 g/ha: rate 250 g/ha
Method in brief: (§3)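 Readout: 0–100 damage score 13 d post-spray. Pots in glasshouse (24/16° C, 14 h light, 65% humidity); compound sprayed in acetone/water 50:50 with 0.5% Tween 20, 1 d (pre) or 8 d (post) after sowing.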

Avena fatua (AVEFA) [18] = experiment: as above; format: in vivo; details: 312 h, evaluated after 13 days, read-out: AVEFA post-emergence activity (100=total damage to plant; 0=no damage to plant); for pest or weed control at 1000 g/ha: rate 1000 g/ha; for pest or weed control at 250 g/ha: rate 250 g/ha
Method in brief: as §3

[19] = test system: Echinochloa crus-galli (ECHCG); experiment: as above; format: in vivo; details: 312 h, evaluated after 13 days, read-out: ECHCG post-emergence activity (100=total damage to plant; 0=no damage to plant); for pest or weed control at 1000 g/ha: rate 1000 g/ha; for pest or weed control at 250 g/ha: rate 250 g/ha
Method in brief: as §3

Setaria faberi (SETFA) [20] = experiment: as above; format: in vivo; details: 312 h, evaluated after 13 days, read-out: SETFA post-emergence activity (100=total damage to plant; 0=no damage to plant); for pest or weed control at 1000 g/ha: rate 1000 g/ha; for pest or weed control at 250 g/ha: rate 250 g/ha
Method in brief: as §3

melting point [°C] | SMILES | pest or weed control at 250 g/ha [1] [%] | pest or weed control at 250 g/ha (Avena fatua (AVEFA) [2]) [%] | pest or weed control at 250 g/ha [3] [%] | pest or weed control at 250 g/ha [4] [%] | pest or weed control at 250 g/ha (Lolium perenne (LOLPE) [5]) [%] | pest or weed control at 250 g/ha (Setaria faberi (SETFA) [6]) [%] | pest or weed control at 125 g/ha [7] [%] | pest or weed control at 125 g/ha (Avena fatua (AVEFA) [8]) [%] | pest or weed control at 125 g/ha [9] [%] | pest or weed control at 125 g/ha [10] [%] | pest or weed control at 125 g/ha (Lolium perenne (LOLPE) [11]) [%] | pest or weed control at 125 g/ha (Setaria faberi (SETFA) [12]) [%] | pest or weed control at 1000 g/ha [13] [%] | pest or weed control at 1000 g/ha (Avena fatua (AVEFA) [14]) [%] | pest or weed control at 1000 g/ha [15] [%] | pest or weed control at 1000 g/ha (Setaria faberi (SETFA) [16]) [%] | pest or weed control at 1000 g/ha [17] [%] | pest or weed control at 1000 g/ha (Avena fatua (AVEFA) [18]) [%] | pest or weed control at 1000 g/ha [19] [%] | further results
174 to 176 | C=CCOC(=O)OC1=C(c2c(C)cc(C)cc2C)C(=O)NC12CCN(OC)CC2 [Compound P43] | 80 | 70 | 90 | 80 | 70 | 80 | 60 | 40 | 70 | 60 | 70 | 50 | 100 | 90 | 100 | 100 | 90 | 90 | 90 | pest or weed control at 1000 g/ha (Setaria faberi (SETFA) [20]): 90%
211 to 213 | CCOC(=O)OC1=C(c2cc(-c3ccc(Cl)cc3)c(C)cc2C)C(=O)NC12CCN(OC)CC2 [Compound P53] | 0 | 30 | 60 | 50 | 20 | 40 | 20 | 0 | 60 | 60 | 0 | 50 |  |  |  |  |  |  |  | pest or weed control at 250 g/ha [13]: 0%; pest or weed control at 250 g/ha (Avena fatua (AVEFA) [14]): 0%; pest or weed control at 250 g/ha [15]: 0%; pest or weed control at 250 g/ha (Setaria faberi (SETFA) [16]): 80%; pest or weed control at 250 g/ha [17]: 70%; pest or weed control at 250 g/ha (Avena fatua (AVEFA) [18]): 30%; pest or weed control at 250 g/ha [19]: 90%; pest or weed control at 250 g/ha (Setaria faberi (SETFA) [20]): 90%
217 to 219 | CCOC(=O)OC1=C(c2c(C)cc(-c3ccc(Cl)cc3)cc2C)C(=O)NC12CCN(OC)CC2 [Compound P70] | 70 | 70 | 100 | 100 | 30 | 100 | 0 | 10 | 100 | 100 | 0 | 90 |  |  |  |  |  |  |  | pest or weed control at 250 g/ha [13]: 90%; pest or weed control at 250 g/ha (Avena fatua (AVEFA) [14]): 90%; pest or weed control at 250 g/ha [15]: 100%; pest or weed control at 250 g/ha (Setaria faberi (SETFA) [16]): 100%; pest or weed control at 250 g/ha [17]: 100%; pest or weed control at 250 g/ha (Avena fatua (AVEFA) [18]): 100%; pest or weed control at 250 g/ha [19]: 100%; pest or weed control at 250 g/ha (Setaria faberi (SETFA) [20]): 100%
209 to 211 | CCOC(=O)OC1=C(c2cc(-c3ccc(Cl)cc3)ccc2C)C(=O)NC12CCN(OC)CC2 [Compound P29] | 20 | 50 | 20 | 60 | 10 | 0 | 90 | 90 | 100 | 100 | 80 | 90 | 70 | 90 | 100 | 100 | 100 | 100 | 100 | pest or weed control at 1000 g/ha (Setaria faberi (SETFA) [20]): 100%
